{
  "source": "paper PMC7316778",
  "about": "(Nature Communications, 2020)",
  "assay_in_all_cases": "SelectScreen kinase assay",
  "key": {"SYK": {"biological_target": "SYK (Homo sapiens, UniProt P43405)", "procedure": "(§1) Selectivity profiling assays were performed by the Invitrogen SelectScreen™ Services. […] The concentration of ATP was selected to be equal to the KM, unless indicated otherwise."}, "TAOK1": {"biological_target": "TAOK1 (Homo sapiens, UniProt Q7L7X3)", "procedure": "as §1"}, "FRK (PTK5)": {"biological_target": "FRK (PTK5) (Homo sapiens, UniProt P42685)", "sequence (P42685 whole entry)": "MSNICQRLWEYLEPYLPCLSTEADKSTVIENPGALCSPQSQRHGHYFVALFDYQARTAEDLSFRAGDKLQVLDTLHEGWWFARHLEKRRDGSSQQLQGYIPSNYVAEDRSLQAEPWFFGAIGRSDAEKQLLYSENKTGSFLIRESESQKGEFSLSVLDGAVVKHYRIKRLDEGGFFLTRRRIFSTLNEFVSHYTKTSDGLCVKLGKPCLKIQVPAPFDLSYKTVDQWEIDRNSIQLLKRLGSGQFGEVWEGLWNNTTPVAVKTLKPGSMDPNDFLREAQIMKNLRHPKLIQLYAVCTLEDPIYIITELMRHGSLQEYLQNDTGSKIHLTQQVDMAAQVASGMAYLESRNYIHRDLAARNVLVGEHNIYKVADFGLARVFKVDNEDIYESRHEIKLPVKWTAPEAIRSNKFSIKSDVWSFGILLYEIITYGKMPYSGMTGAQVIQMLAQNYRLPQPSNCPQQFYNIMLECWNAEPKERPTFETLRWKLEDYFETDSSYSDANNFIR", "conditions": "for Inhibition at 1 µM (%): FRK (PTK5), ZLYTE, ATP Km app", "procedure": "as §1"}, "AMPK A1/B1/G1": {"biological_target": "AMPK A1/B1/G1 (Homo sapiens, UniProt Q13131)", "procedure": "as §1"}, "ERBB4 (HER4)": {"biological_target": "ERBB4 (HER4) (Homo sapiens, UniProt Q15303)", "conditions": "for Inhibition at 1 µM (%): ERBB4 (HER4), ZLYTE, ATP Km app", "procedure": "as §1"}, "CDC42 BPG (MRCKG)": {"biological_target": "CDC42 BPG (MRCKG) (Homo sapiens, UniProt Q6DT37)", "procedure": "as §1"}, "EPHB4": {"biological_target": "T1, EPHB4 (Homo sapiens, UniProt P54760)", "T1 sequence (P54760 16-987)": "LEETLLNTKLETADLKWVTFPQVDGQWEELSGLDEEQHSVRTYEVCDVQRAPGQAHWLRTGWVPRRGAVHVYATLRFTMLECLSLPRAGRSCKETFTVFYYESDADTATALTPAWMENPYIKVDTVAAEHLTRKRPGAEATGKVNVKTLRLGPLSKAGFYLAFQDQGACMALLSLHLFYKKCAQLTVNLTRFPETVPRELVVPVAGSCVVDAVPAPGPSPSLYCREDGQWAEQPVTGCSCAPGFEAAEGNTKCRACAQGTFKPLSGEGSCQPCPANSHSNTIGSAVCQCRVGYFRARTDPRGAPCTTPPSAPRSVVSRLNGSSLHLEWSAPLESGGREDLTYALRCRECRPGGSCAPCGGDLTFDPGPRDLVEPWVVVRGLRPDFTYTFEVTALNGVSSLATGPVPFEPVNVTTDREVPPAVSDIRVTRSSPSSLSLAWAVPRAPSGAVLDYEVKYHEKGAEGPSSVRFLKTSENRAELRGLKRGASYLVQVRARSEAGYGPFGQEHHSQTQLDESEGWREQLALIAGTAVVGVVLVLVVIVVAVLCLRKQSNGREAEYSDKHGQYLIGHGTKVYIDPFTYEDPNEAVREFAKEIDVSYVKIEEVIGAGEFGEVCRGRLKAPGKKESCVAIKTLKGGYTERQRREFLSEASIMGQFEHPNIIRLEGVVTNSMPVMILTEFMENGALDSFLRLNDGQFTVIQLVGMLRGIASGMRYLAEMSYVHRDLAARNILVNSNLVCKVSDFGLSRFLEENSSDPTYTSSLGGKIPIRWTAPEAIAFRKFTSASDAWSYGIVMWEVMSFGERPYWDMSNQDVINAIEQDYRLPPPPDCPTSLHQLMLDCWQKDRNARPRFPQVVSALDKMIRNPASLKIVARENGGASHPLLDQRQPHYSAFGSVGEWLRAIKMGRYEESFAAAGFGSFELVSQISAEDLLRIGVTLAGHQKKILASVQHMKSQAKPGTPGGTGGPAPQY", "conditions": "for Inhibition at 1 µM (%): EPHB4, ZLYTE, ATP Km app", "procedure": "as §1"}, "ACVR2B": {"biological_target": "ACVR2B (Homo sapiens, UniProt Q13705)", "sequence (Q13705 19-512)": "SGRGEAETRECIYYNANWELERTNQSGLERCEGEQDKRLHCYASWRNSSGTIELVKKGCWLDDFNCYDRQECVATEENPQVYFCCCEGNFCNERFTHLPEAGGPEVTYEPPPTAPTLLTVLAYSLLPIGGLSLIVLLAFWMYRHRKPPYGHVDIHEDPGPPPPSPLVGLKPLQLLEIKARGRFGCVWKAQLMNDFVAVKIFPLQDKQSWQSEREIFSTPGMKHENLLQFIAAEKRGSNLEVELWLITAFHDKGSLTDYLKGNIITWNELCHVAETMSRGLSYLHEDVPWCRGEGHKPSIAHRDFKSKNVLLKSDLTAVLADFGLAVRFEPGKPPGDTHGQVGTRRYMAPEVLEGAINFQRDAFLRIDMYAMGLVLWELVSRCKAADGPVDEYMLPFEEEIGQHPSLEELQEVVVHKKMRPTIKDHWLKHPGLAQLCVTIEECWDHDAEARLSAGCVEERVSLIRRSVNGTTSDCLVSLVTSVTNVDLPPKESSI", "procedure": "as §1"}, "TYK2": {"biological_target": "TYK2 (Homo sapiens, UniProt P29597)", "sequence (P29597 whole entry)": "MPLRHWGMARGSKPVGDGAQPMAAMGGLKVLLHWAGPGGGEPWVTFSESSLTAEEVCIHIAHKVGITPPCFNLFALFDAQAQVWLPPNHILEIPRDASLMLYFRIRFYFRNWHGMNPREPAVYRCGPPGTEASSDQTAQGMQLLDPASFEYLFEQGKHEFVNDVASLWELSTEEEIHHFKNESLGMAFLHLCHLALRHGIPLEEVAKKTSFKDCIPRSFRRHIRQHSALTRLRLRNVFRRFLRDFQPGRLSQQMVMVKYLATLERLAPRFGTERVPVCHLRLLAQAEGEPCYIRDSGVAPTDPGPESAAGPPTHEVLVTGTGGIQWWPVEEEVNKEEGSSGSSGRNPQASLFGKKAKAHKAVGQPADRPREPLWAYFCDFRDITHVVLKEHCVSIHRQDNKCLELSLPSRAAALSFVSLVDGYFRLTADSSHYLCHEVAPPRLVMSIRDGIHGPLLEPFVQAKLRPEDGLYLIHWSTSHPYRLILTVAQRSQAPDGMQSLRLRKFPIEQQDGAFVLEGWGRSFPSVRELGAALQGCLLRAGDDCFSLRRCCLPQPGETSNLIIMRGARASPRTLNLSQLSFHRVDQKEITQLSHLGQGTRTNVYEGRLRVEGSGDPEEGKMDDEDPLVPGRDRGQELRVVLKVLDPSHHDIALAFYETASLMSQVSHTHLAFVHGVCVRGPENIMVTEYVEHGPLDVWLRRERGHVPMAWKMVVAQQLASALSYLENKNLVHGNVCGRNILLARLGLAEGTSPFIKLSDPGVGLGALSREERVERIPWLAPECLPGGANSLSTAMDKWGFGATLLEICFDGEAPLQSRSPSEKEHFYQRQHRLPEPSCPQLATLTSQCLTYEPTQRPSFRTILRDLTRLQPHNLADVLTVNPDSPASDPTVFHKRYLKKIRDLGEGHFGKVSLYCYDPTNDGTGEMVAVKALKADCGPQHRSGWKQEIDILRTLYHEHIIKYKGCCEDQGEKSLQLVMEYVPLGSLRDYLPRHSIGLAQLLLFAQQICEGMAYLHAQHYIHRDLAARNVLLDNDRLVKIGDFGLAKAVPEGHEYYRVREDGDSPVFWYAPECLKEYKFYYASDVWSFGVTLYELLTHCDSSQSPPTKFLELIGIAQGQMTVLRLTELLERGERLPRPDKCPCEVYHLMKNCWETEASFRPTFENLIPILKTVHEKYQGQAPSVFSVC", "procedure": "as §1"}, "WNK1": {"biological_target": "WNK1 (Homo sapiens, UniProt Q9H4A3)", "procedure": "as §1"}, "KDR (VEGFR2) [1]": {"biological_target": "KDR (VEGFR2) (Homo sapiens, UniProt P35968)", "sequence (P35968 20-1356, species assumed)": "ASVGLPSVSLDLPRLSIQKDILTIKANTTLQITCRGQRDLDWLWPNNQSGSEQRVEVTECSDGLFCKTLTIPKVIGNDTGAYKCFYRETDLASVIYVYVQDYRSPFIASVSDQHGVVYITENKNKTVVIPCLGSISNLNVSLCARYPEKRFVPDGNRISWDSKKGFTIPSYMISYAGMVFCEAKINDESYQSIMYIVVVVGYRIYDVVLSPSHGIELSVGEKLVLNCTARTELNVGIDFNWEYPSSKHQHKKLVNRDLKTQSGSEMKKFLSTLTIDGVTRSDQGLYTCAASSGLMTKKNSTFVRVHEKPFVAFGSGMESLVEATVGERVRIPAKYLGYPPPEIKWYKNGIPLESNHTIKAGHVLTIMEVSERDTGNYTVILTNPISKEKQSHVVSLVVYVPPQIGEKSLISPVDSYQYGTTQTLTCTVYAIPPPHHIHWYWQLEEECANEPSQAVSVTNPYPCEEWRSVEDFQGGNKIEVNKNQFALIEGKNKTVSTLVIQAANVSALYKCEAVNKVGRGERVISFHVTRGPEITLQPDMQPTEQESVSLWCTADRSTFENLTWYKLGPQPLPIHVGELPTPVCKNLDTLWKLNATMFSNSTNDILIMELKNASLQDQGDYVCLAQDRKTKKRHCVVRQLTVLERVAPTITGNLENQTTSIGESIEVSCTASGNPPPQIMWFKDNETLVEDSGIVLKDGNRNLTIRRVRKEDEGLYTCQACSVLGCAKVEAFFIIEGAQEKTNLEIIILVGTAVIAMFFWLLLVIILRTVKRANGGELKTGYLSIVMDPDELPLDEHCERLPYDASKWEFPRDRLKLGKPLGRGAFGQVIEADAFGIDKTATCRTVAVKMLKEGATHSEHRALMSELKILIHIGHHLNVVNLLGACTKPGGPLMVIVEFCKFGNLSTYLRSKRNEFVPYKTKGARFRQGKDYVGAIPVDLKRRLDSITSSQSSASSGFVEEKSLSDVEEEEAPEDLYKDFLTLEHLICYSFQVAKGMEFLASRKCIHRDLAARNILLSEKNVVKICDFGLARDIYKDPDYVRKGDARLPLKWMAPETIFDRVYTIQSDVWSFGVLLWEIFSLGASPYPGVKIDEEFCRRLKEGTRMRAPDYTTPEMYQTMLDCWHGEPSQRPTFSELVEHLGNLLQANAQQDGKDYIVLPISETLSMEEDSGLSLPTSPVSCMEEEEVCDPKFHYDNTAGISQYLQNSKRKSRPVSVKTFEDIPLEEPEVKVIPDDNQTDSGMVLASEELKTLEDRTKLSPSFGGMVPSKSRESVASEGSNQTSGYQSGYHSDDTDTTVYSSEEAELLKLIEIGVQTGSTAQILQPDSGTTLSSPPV", "procedure": "as §1"}, "KDR (VEGFR2) [2]": {"tested_on": "KDR (VEGFR2)", "conditions": "IC50 on that kinase divided by IC50 on FES^S700C", "procedure": "as §1"}, "STK22B (TSSK2)": {"biological_target": "T2, STK22B (TSSK2) (Homo sapiens, UniProt Q96PF2)", "T2 sequence (Q96PF2 1-358)": "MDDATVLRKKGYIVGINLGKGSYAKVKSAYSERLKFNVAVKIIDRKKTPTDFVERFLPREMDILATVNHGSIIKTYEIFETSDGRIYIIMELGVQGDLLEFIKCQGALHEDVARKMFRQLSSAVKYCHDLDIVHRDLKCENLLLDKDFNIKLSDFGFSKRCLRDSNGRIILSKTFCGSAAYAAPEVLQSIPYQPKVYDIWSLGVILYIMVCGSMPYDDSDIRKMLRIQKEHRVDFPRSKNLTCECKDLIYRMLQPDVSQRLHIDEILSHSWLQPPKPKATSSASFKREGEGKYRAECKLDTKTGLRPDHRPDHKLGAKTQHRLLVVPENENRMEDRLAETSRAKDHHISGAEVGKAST", "procedure": "as §1"}, "ALK [3]": {"biological_target": "ALK (Homo sapiens, UniProt Q9UM73)", "sequence (Q9UM73 19-1620, species assumed)": "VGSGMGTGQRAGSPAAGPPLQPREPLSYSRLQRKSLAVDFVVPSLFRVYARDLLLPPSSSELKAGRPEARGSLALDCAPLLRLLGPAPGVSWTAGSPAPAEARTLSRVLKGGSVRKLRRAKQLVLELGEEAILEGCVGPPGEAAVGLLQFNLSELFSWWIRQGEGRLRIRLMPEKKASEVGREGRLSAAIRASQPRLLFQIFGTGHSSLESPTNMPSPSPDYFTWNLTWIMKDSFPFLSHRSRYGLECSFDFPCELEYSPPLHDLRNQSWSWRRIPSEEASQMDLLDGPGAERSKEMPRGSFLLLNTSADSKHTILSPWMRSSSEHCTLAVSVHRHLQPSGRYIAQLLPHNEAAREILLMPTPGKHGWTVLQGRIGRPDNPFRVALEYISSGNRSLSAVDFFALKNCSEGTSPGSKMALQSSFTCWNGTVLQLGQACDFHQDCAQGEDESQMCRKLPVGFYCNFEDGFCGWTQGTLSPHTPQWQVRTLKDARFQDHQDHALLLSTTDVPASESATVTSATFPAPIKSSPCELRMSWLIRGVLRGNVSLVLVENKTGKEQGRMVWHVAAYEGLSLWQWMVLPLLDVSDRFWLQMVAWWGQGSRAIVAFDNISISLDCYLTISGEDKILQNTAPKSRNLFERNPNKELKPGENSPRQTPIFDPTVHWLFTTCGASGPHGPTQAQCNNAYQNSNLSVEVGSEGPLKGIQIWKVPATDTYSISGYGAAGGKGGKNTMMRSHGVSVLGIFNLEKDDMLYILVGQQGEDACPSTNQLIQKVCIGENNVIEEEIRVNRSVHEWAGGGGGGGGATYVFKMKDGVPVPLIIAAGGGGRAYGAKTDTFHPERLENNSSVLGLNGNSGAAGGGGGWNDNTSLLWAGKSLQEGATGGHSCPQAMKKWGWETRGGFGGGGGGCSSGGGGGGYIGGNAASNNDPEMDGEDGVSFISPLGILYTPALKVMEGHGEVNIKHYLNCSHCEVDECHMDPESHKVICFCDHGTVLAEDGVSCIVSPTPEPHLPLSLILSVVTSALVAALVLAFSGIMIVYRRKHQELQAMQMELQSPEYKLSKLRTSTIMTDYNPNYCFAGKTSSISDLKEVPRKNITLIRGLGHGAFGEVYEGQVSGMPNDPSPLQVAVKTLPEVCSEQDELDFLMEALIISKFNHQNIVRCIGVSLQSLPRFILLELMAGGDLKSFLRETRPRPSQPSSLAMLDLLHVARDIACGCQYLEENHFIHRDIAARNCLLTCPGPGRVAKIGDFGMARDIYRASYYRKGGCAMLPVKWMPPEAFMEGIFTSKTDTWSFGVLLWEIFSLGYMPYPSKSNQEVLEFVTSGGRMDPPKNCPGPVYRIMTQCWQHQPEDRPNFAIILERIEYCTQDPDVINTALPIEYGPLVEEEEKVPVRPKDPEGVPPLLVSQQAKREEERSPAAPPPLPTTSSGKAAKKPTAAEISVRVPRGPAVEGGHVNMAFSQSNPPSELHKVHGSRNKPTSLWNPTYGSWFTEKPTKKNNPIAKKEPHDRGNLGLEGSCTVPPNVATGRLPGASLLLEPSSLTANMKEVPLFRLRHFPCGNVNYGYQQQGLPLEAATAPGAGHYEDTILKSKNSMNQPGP", "procedure": "as §1"}, "ALK [4]": {"tested_on": "ALK", "conditions": "IC50 on that kinase divided by IC50 on FES^S700C", "procedure": "as §1"}, "CDK4/cyclin D1": {"biological_target": "CDK4/cyclin D1 (Homo sapiens, UniProt P11802)", "conditions": "for Inhibition at 1 µM (%): CDK4/cyclin D1, Adapta, ATP 10", "procedure": "as §1"}, "[5]": {"conditions": "1 µM, ZLYTE, ATP Km app, listed as WEL028, 1 µM"}, "[6]": {"conditions": "1 h, 1 μM WEL028, 1 h preincubation"}},
  "note": "pIC50: −log10 of the molar value. Several values for one entry are separate records, joined by “and”; a condition that tells them apart may be missing. Equal values may be shown once. Read-outs that look alike come from different tables or passages of the source.",
  "data": [
    {"smiles": "C#CCOc1ccc(Nc2ncc(Cl)c(Nc3ccccc3NC(=O)C=C)n2)c(OC)c1", "note": "[Compound 6]", "values": [
      {"measurement": "Inhibition (%)", "setting": "SYK; 1 μM WEL028, 1 h preincubation", "value": "did not inhibit"},
      {"measurement": "Inhibition at 1 µM (%)", "setting": "SYK; [5]", "value": "1% and 5%"},
      {"measurement": "inhibition at 1 µM", "setting": "TAOK1; [6]", "value": 23, "unit": "%"},
      {"measurement": "inhibition at 1 µM", "setting": "TAOK1; read-out: Inhibition at 1 µM (%), 1 µM, LanthaScreen Binding", "value": 24, "unit": "%"},
      {"measurement": "inhibition at 1 µM", "setting": "FRK (PTK5); [6]", "value": 7, "unit": "%"},
      {"measurement": "Inhibition at 1 µM (%)", "setting": "FRK (PTK5)", "value": 11, "unit": "%"},
      {"measurement": "Inhibition at 1 µM (%)", "setting": "FRK (PTK5); listed as WEL028, 1 µM", "value": 4, "unit": "%"},
      {"measurement": "inhibition at 1 µM", "setting": "AMPK A1/B1/G1; [6]", "value": 13, "unit": "%"},
      {"measurement": "Inhibition at 1 µM (%)", "setting": "AMPK A1/B1/G1; AMPK A1/B1/G1, 1 µM, ZLYTE, ATP Km app", "value": 21, "unit": "%"},
      {"measurement": "inhibition at 1 µM", "setting": "ERBB4 (HER4); [6]", "value": 8, "unit": "%"},
      {"measurement": "Inhibition at 1 µM (%)", "setting": "ERBB4 (HER4)", "value": 11, "unit": "%"},
      {"measurement": "Inhibition at 1 µM (%)", "setting": "ERBB4 (HER4); listed as WEL028, 1 µM", "value": 5, "unit": "%"},
      {"measurement": "inhibition at 1 µM", "setting": "CDC42 BPG (MRCKG); 1 h", "value": -1, "unit": "%"},
      {"measurement": "inhibition at 1 µM", "setting": "CDC42 BPG (MRCKG); read-out: Inhibition at 1 µM (%)", "value": -1, "unit": "%"},
      {"measurement": "inhibition at 1 µM", "setting": "EPHB4; [6]", "value": 1, "unit": "%"},
      {"measurement": "Inhibition at 1 µM (%)", "setting": "EPHB4", "value": 3, "unit": "%"},
      {"measurement": "Inhibition at 1 µM (%)", "setting": "EPHB4; listed as WEL028, 1 µM", "value": -1, "unit": "%"},
      {"measurement": "Inhibition (%)", "setting": "ACVR2B; 1 μM WEL028, 1 h preincubation", "value": 9, "unit": "%"},
      {"measurement": "Inhibition at 1 µM (%)", "setting": "ACVR2B; ACVR2B, 1 µM, LanthaScreen Binding, listed as WEL028, 1 µM", "value": 7, "unit": "%"},
      {"measurement": "inhibition at 1 µM", "setting": "ACVR2B; read-out: Inhibition at 1 µM (%), ACVR2B, 1 µM, LanthaScreen Binding", "value": 12, "unit": "%"},
      {"measurement": "Inhibition (%)", "setting": "TYK2; 1 μM WEL028, 1 h preincubation", "value": -1, "unit": "%"},
      {"measurement": "Inhibition at 1 µM (%)", "setting": "TYK2; [5]", "value": "-6% and 4%"},
      {"measurement": "Inhibition (%)", "setting": "WNK1; 1 μM WEL028, 1 h preincubation", "value": 5, "unit": "%"},
      {"measurement": "Inhibition at 1 µM (%)", "setting": "WNK1; 1 µM, LanthaScreen Binding", "value": 11, "unit": "%"},
      {"measurement": "pIC50", "setting": "KDR (VEGFR2) [1]", "value": 6.20},
      {"measurement": "inhibition at 1 µM", "setting": "KDR (VEGFR2) [1]; [6]", "value": 67, "unit": "%"},
      {"measurement": "inhibition at 10 µM", "setting": "KDR (VEGFR2) [1]; 1 h, log[inhibitor] (M) -5.00, ZLYTE, ATP Km app", "value": 101, "unit": "%"},
      {"measurement": "inhibition at 3.31 µM", "setting": "KDR (VEGFR2) [1]; 1 h, log[inhibitor] (M) -5.48, ZLYTE, ATP Km app", "value": 99, "unit": "%"},
      {"measurement": "inhibition at 1.12 µM", "setting": "KDR (VEGFR2) [1]; 1 h, log[inhibitor] (M) -5.95, ZLYTE, ATP Km app", "value": 70, "unit": "%"},
      {"measurement": "inhibition at 0.372 µM", "setting": "KDR (VEGFR2) [1]; 1 h, log[inhibitor] (M) -6.43, ZLYTE, ATP Km app", "value": 37, "unit": "%"},
      {"measurement": "inhibition at 0.123 µM", "setting": "KDR (VEGFR2) [1]; 1 h, log[inhibitor] (M) -6.91, ZLYTE, ATP Km app", "value": 26, "unit": "%"},
      {"measurement": "inhibition at 0.04074 µM", "setting": "KDR (VEGFR2) [1]; 1 h, log[inhibitor] (M) -7.39, ZLYTE, ATP Km app", "value": 16, "unit": "%"},
      {"measurement": "inhibition at 0.00151 µM", "setting": "KDR (VEGFR2) [1]; 1 h, log[inhibitor] (M) -8.82, ZLYTE, ATP Km app", "value": 17, "unit": "%"},
      {"measurement": "inhibition at 0.00049 µM", "setting": "KDR (VEGFR2) [1]; 1 h, log[inhibitor] (M) -9.31, ZLYTE, ATP Km app", "value": 17, "unit": "%"},
      {"measurement": "Inhibition at 1 µM (%)", "setting": "KDR (VEGFR2) [1]; KDR (VEGFR2), 1 µM, ZLYTE, ATP Km app, listed as WEL028, 1 µM", "value": 65, "unit": "%"},
      {"measurement": "inhibition at 1 µM", "setting": "KDR (VEGFR2) [1]; read-out: Inhibition at 1 µM (%), KDR (VEGFR2), 1 µM, ZLYTE, ATP Km app", "value": 69, "unit": "%"},
      {"measurement": "Apparent fold selectivity", "setting": "KDR (VEGFR2) [2]", "value": 153, "unit": "fold"},
      {"measurement": "Inhibition at 1 µM (%)", "setting": "STK22B (TSSK2); [5]", "value": 17, "unit": "%"},
      {"measurement": "inhibition at 1 µM", "setting": "STK22B (TSSK2); [6]", "value": 18, "unit": "%"},
      {"measurement": "inhibition at 1 µM", "setting": "STK22B (TSSK2); read-out: Inhibition at 1 µM (%), 1 µM, ZLYTE, ATP Km app", "value": 18, "unit": "%"},
      {"measurement": "pIC50", "setting": "ALK [3]", "value": 6.90},
      {"measurement": "inhibition at 1 µM", "setting": "ALK [3]; [6]", "value": 89, "unit": "%"},
      {"measurement": "inhibition at 1 µM", "setting": "ALK [3]; read-out: Inhibition at 1 µM (%), ALK, 1 µM, ZLYTE, ATP Km app", "value": 90, "unit": "%"},
      {"measurement": "Apparent fold selectivity", "setting": "ALK [4]", "value": 28, "unit": "fold"},
      {"measurement": "inhibition at 1 µM", "setting": "CDK4/cyclin D1; [6]", "value": -10, "unit": "%"},
      {"measurement": "Inhibition at 1 µM (%)", "setting": "CDK4/cyclin D1", "value": -14, "unit": "%"},
      {"measurement": "Inhibition at 1 µM (%)", "setting": "CDK4/cyclin D1; listed as WEL028, 1 µM", "value": -6, "unit": "%"}
    ]}
  ]
}
